Measurements as given in patent publication US4378348A (priority 1979, dated 1983).

Assay: in vivo
Settings: mouse, iv
Text: The substance of this invention was intravenously administered to male mice of DD strain weighing 20 to 21 g and checked for acute toxicity.

Structure (SMILES): CN[C@H](CC(C)C)C(=O)N[C@H]1C(=O)N[C@@H](CC(N)=O)C(=O)N[C@H]2C(=O)N[C@H]3C(=O)N[C@H](C(=O)N[C@H](C(=O)O)c4cc(O)cc(O)c4-c4cc3ccc4O)[C@H](O)c3ccc(c(Cl)c3)Oc3cc2cc(c3O[C@@H]2O[C@H](CO)[C@@H](O)[C@H](O)[C@H]2O[C@H]2C[C@](C)(N)[C@H](O)[C@H](C)O2)Oc2ccc(cc2Cl)[C@H]1O [vancomycin]
- LD50: 400 to 500 mg/kg
